Measurements reported in ChEMBL document CHEMBL6096631, “The application of PROTACs in immune-inflammation diseases” (Bioorg Med Chem, 2024).

Assays:
Type in all cases: cell-based
[1] = PROTAC activity at VHL/human p38alpha in MDA-MB-231 cells assessed as p38alpha degradation
[2] = target: T1, von Hippel-Lindau disease tumor suppressor/Receptor-interacting serine/threonine-protein kinase 2 (Homo sapiens, UniProt O43353+P40337); assay: PROTAC activity at VHL/RIPK2 in human THP-1 cells assessed as RIPK2 degradation by measuring maximal efficacy at 10 nM measured after 16 hrs by Western blot analysis relative to control
Target sequence in this assay (O43353 whole entry, looked up): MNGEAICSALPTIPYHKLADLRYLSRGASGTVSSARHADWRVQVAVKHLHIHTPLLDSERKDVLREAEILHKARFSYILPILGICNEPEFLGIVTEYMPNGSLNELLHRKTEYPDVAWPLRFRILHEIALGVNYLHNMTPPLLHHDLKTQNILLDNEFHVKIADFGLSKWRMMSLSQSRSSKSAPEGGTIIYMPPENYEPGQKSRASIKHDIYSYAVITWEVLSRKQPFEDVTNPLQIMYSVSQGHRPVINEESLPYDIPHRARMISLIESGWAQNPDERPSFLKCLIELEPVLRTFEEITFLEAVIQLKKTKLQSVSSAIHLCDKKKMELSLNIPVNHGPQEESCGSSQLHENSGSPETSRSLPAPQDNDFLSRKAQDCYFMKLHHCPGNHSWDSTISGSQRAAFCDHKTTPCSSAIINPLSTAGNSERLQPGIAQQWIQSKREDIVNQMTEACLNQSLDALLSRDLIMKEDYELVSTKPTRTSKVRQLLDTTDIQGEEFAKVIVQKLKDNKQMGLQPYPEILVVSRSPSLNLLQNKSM
Target sequence in this assay (P40337 whole entry, looked up): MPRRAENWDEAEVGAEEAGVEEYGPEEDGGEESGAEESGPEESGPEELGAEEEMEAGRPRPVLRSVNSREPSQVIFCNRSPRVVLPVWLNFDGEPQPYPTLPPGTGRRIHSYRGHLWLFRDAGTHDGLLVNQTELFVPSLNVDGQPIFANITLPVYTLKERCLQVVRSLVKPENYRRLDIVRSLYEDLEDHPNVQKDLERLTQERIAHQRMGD

[3] = target: T1, von Hippel-Lindau disease tumor suppressor/Receptor-interacting serine/threonine-protein kinase 2; assay: PROTAC activity at VHL/RIPK2 in human THP-1 cells assessed as RIPK2 degradation measured after 16 hrs by Western blot analysis
Target sequence in this assay (O43353 whole entry): as the sequence (O43353 whole entry, looked up) above
Target sequence in this assay (P40337 whole entry): as the sequence (P40337 whole entry, looked up) above

[4] = target: T2, Protein cereblon/Interleukin-1 receptor-associated kinase 4 (Homo sapiens, UniProt Q9NWZ3+Q96SW2); assay: PROTAC activity at CRBN/IRAK4 in human PBMC cells assessed as induction of degradation measured after 24 hrs by Immuno-blotting analysis
Target sequence in this assay (Q9NWZ3 whole entry): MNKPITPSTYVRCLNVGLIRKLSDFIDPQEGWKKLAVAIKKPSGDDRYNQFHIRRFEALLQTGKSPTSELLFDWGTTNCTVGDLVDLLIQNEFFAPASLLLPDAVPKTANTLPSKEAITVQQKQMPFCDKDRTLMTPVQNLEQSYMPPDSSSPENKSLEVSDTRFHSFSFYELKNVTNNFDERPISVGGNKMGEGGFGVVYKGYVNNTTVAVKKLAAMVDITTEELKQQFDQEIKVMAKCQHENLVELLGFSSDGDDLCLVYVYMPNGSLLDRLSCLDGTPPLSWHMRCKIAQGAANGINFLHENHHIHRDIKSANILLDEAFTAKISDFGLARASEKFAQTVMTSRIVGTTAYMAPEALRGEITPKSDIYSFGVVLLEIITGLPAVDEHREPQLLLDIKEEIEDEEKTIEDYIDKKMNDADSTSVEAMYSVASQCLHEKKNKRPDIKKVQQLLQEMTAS
Target sequence in this assay (Q96SW2 whole entry): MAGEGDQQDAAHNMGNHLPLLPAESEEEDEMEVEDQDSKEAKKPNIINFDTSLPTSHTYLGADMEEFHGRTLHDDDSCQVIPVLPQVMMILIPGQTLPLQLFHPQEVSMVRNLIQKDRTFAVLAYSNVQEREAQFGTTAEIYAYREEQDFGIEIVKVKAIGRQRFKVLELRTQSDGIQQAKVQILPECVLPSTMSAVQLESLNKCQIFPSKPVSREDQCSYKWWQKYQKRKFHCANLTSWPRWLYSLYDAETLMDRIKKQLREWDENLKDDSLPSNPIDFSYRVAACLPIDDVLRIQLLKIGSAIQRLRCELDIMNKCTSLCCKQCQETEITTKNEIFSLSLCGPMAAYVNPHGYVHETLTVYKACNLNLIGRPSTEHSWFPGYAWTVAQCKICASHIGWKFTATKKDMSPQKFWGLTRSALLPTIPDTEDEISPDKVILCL

[5] = target: T2, Protein cereblon/Interleukin-1 receptor-associated kinase 4; assay: PROTAC activity at CRBN/IRAK4 in human KARPAS-299 cells assessed as induction of IRAK4 degradation
Target sequence in this assay (Q9NWZ3 whole entry): as the sequence (Q9NWZ3 whole entry) above
Target sequence in this assay (Q96SW2 whole entry): as the sequence (Q96SW2 whole entry) above

[6] = target: T2, Protein cereblon/Interleukin-1 receptor-associated kinase 4; assay: PROTAC activity at CRBN/IRAK4 in human HEK293T cells assessed as induction of protein degradation by measuring maximal efficacy at 10 uM measured after 24 hrs by immunoblotting analysis relative to control
Target sequence in this assay (Q96SW2 whole entry, looked up): as the sequence (Q96SW2 whole entry) above
Target sequence in this assay (Q9NWZ3 whole entry, looked up): as the sequence (Q9NWZ3 whole entry) above

[7] = target: T3, von Hippel-Lindau disease tumor suppressor/Mitogen-activated protein kinase 14 (Homo sapiens, UniProt Q16539+P40337); assay: PROTAC activity at VHL/p38alpha in human THP-1 cells assessed as induction of protein degradation by measuring maximal efficacy at 10 uM incubated for 16 hrs by Western blot analysis relative to control
Target sequence in this assay (P40337 whole entry partner): as the sequence (P40337 whole entry, looked up) above
Target sequence in this assay (Q16539 2-360 limits assumed): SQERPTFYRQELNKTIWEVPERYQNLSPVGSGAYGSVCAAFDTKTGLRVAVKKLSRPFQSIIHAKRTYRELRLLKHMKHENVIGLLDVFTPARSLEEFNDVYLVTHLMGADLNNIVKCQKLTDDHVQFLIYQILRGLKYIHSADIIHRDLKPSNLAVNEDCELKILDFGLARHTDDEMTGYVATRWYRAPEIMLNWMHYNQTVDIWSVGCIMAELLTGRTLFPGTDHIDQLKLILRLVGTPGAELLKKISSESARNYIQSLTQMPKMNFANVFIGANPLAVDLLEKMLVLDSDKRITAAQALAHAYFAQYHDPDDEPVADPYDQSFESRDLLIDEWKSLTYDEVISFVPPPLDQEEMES

[8] = target: T3, von Hippel-Lindau disease tumor suppressor/Mitogen-activated protein kinase 14; assay: PROTAC activity at VHL/p38alpha in human THP-1 cells assessed as MAPK degradation incubated for 16 hrs by Western blot analysis
Target sequence in this assay (Q16539 whole entry): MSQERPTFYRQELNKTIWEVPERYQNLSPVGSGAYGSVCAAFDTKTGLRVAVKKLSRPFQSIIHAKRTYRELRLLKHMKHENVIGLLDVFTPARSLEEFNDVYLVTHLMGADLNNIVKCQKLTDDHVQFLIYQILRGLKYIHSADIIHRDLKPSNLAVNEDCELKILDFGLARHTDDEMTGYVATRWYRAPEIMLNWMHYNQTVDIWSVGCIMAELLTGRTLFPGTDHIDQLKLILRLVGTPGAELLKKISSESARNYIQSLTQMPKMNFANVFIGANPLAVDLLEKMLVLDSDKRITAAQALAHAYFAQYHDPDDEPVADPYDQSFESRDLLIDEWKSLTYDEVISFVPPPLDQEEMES
Target sequence in this assay (P40337 whole entry): as the sequence (P40337 whole entry, looked up) above

[9] = target: T4, von Hippel-Lindau disease tumor suppressor/Interleukin-1 receptor-associated kinase 4 (Homo sapiens, UniProt Q9NWZ3+P40337); assay: PROTAC activity at VHL E3 ligase/IRAK4 in human PBMC cells assessed as induction of degradation of IRAK4 incubated overnight by immunoblot analysis
Target sequence in this assay (Q9NWZ3 whole entry): as the sequence (Q9NWZ3 whole entry) above
Target sequence in this assay (P40337 whole entry): as the sequence (P40337 whole entry, looked up) above

[10] = target: T5, Protein cereblon/Tyrosine-protein kinase BTK (Homo sapiens, UniProt Q06187+Q96SW2); assay: PROTAC activity at CRBN/BTK in human Huh-7 cells assessed as protein degradation
Target sequence in this assay (Q06187 whole entry): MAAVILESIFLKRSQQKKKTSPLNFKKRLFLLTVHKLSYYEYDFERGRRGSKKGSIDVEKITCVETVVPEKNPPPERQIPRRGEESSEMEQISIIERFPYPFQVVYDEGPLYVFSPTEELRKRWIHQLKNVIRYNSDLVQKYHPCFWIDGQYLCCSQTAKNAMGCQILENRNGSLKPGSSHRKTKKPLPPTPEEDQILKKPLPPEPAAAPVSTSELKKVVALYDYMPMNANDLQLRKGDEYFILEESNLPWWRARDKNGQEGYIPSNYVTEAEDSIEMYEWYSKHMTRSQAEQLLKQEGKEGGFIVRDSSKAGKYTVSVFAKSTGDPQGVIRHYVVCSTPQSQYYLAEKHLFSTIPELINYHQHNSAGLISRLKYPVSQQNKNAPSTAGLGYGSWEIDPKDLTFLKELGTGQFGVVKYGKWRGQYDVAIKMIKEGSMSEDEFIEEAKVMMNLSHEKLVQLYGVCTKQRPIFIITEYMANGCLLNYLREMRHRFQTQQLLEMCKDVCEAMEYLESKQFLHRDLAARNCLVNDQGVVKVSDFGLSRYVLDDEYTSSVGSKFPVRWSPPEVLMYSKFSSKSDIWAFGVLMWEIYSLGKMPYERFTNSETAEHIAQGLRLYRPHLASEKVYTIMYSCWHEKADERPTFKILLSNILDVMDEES
Target sequence in this assay (Q96SW2 whole entry): as the sequence (Q96SW2 whole entry) above

[11] = target: T5, Protein cereblon/Tyrosine-protein kinase BTK; assay: PROTAC activity at CRBN/BTK in human Ramos cells assessed as protein degradation
Target sequence in this assay (Q06187 whole entry): as the sequence (Q06187 whole entry) above
Target sequence in this assay (Q96SW2 whole entry): as the sequence (Q96SW2 whole entry) above

[12] = target: T5, Protein cereblon/Tyrosine-protein kinase BTK; assay: PROTAC activity at CRBN/BTK in human Ramos cells assessed as induction of protein degradation by measuring maximal efficacy at 10 uM relative to control
Target sequence in this assay (Q06187 2-659 limits assumed): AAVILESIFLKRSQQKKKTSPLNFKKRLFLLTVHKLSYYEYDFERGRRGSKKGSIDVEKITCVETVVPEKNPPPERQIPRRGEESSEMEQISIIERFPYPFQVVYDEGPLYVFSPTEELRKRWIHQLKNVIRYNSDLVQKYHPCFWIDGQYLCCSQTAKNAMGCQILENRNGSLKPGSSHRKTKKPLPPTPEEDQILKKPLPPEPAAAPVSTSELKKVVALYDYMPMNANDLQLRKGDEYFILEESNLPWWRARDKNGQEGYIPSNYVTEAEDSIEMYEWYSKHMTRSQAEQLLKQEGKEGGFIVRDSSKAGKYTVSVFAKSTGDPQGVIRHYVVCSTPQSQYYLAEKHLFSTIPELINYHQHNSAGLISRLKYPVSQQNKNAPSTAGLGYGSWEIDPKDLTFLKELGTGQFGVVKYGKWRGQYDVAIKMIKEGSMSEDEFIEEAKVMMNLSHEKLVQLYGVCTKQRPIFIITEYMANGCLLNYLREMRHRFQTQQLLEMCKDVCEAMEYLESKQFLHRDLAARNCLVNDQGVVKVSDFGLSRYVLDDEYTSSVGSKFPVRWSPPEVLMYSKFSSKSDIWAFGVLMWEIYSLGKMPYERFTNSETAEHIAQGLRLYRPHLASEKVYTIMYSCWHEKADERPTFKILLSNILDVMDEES
Target sequence in this assay (Q96SW2 whole entry partner): as the sequence (Q96SW2 whole entry) above

[13] = target: Protein cereblon/Non-receptor tyrosine-protein kinase TYK2 (Homo sapiens, UniProt P29597+Q96SW2); assay: PROTAC activity at CRBN/TYK2 in HEL cells assessed as TYK2 degradation incubated for 24 hrs by Western blotting analysis
[14] = target: T4, von Hippel-Lindau disease tumor suppressor/Interleukin-1 receptor-associated kinase 4; assay: PROTAC activity at VHL E3 ligase/IRAK4 in human PBMC cells assessed as induction of degradation of IRAK4 incubated for 16 hrs by immunoblot analysis relative to control
Target sequence in this assay (P40337 whole entry, looked up): as the sequence (P40337 whole entry, looked up) above
Target sequence in this assay (Q9NWZ3 whole entry, looked up): as the sequence (Q9NWZ3 whole entry) above

Cc1ccc(C(=O)NCCCCc2cn(CCCC(=O)NCCCCNc3cccc4c3C(=O)N(C3CCC(=O)NC3=O)C4=O)nn2)cc1-n1c(C)cc(OCc2ccc(F)cc2F)c(Br)c1=O (centres undefined)
DC50 [1]: 48.9 nM

Cc1ncsc1-c1ccc(CNC(=O)[C@@H]2C[C@@H](O)CN2C(=O)[C@@H](NC(=O)COCCOCCOCCOCCOc2cc3nccc(Nc4ccc5scnc5c4)c3cc2S(=O)(=O)C(C)(C)C)C(C)(C)C)cc1
Emax [2]: 95%

CN[C@@H](C)C(=O)N[C@H](C(=O)N1CCC[C@H]1c1nc(C(=O)c2ccc(F)cc2)cs1)C1CCN(C(=O)c2cnc(N3CCN(CCOc4cc5ncnc(Nc6n[nH]c(C)c6C)c5cc4S(=O)(=O)C(C)(C)C)CC3)nc2)CC1
DC50 [3]: 9.4 nM | Emax [2]: 94.3%

CC[C@@H]1[C@H](F)C(=O)N[C@@H]1COc1ncc(C#CCN2CCC3(CC2)CCN(c2ncc(C(=O)N[C@H](C(=O)N4C[C@H](O)C[C@H]4C(=O)NCc4ccc(-c5scnc5C)cc4)C(C)(C)C)cn2)CC3)c2cc(C(N)=O)c(OC)cc12
DC50 [4]: 151 nM

O=C1CCC(N2C(=O)c3cccc(N4CCN(C(=O)C5CCN(c6ccc(NC(=O)c7cnc(Oc8ccccc8)nc7)cc6)CC5)CC4)c3C2=O)C(=O)N1 (centres undefined)
DC50 [5]: 17.3 nM

CC(C)Nc1cc(-n2ccc3cc(C#N)cnc32)ncc1C(=O)N[C@H]1CC[C@H](C(=O)NCCOCCNC(=O)COc2cccc3c2C(=O)N(C2CCC(=O)NC2=O)C3=O)CC1 (some centres undefined)
Emax [6]: 90%

COc1cc2c(Oc3ccc(NC(=O)C4(C(=O)Nc5ccc(F)cc5)CC4)cc3F)ccnc2cc1OCCOCCOCCOc1cc(-c2scnc2C)ccc1CNC(=O)[C@@H]1C[C@@H](O)CN1C(=O)[C@H](C(C)C)N1Cc2ccccc2C1=O
Emax [7]: 99.4% | DC50 [8]: 46.2 nM

O=C(/C=C/C(=O)Nc1ccc(NC(=O)c2ccc([N+](=O)[O-])o2)cc1)NCCCCCCNc1cccc2c1C(=O)N(C1CCC(=O)NC1=O)C2=O (centres undefined)
DC50 [9]: 3.2 nM

COc1cc(C)c(Sc2cnc(NC(=O)c3ccc(N4CCN(CCCCCCCNC(=O)COc5cccc6c5C(=O)N(C5CCC(=O)NC5=O)C6=O)CC4)cc3)s2)cc1C(=O)N1CCN(C(C)=O)CC1 (centres undefined)
DC50 [10]: 17 nM

Cc1ccc(C(=O)NCCCCc2cn(CCCC(=O)NCCCCCCc3cccc4c3CN(C3CCC(=O)NC3=O)C4=O)nn2)cc1-n1c(C)cc(OCc2ccc(F)cc2F)c(Br)c1=O (centres undefined)
DC50 [1]: 19.1 nM

CN[C@H](C)C(=O)N[C@@H](C(=O)N1C[C@H](NC(=O)c2cnc(N3CCN(CCCOc4cc5ncnc(Nc6n[nH]c(C)c6C)c5cc4S(=O)(=O)C(C)(C)C)CC3)cn2)C[C@@H]1C(=O)Nc1c(F)cccc1F)C(C)(C)C
Emax [2]: 90%

Nc1ncnc2c1c(-c1ccc(Oc3ccccc3)cc1)nn2C1CCN(C(=O)CN2CCN(CC3CN(c4ccc5c(c4)C(=O)N(C4CCC(=O)NC4=O)C5=O)C3)CC2)CC1 (centres undefined)
DC50 [11]: 3.18 nM | Emax [12]: 99.9%

COc1cc2c(Oc3ccc(NC(=O)C4(C(=O)Nc5ccc(F)cc5)CC4)cc3F)ccnc2cc1OCCCCOCCCCOCC(=O)N[C@H](C(=O)N1C[C@H](O)C[C@H]1C(=O)NCc1ccc(-c2scnc2C)cc1)C(C)(C)C
Emax [7]: 97.4%

CNC(=O)c1cnc(Nc2ccc(C(=O)NCCCCCCCCCC(=O)N[C@H](C(=O)N3C[C@H](O)C[C@H]3C(=O)NCc3ccc(-c4scnc4C)cc3)C(C)(C)C)cn2)cc1Nc1cccc(-c2ncn(C)n2)c1OC
DC50 [13]: 14 nM

CCn1nc(C)cc1C(=O)Nc1nc2cc(C(=O)NCCCCCCCCC(=O)N[C@H](C(=O)N3C[C@H](O)C[C@H]3C(=O)NCc3ccc(-c4scnc4C)cc3)C(C)(C)C)cc(OC)c2n1C/C=C/Cn1c(NC(=O)c2cc(C)nn2CC)nc2cc(C(N)=O)cc(OCCCN3CCOCC3)c21
Emax [14]: 91.7% | DC50 [9]: 227 nM
